Data on seven compounds can be found in EP0609460A1, “PHARMACEUTICAL AGENT WITH A[…]” (KISLYAKOVA, Nonna Dmitrievna, priority 1992, dated 1994).

In data set [1] the test system is DMBA-induced mammary gland cancer. As to conditions: cited from earlier work; for per cent of complete regression (disappearance of tumor) / per cent of partial decrease of tumors / tumors which did not regress at all / per cent of general regression of all tumors: after 30 days of administration; for per cent of general regression of all tumors: oil solutions, about 15 mg/kg.

Data set [2] concerns induced mammary gland cancer. Kind of data set: Induced mammary gland cancer in rats, long-term growing tumors with lost androgen susceptibility (Table 1). It is filed as in vivo, White random-bred rats.
Data set [3] concerns hormone-susceptible DMBA-induced mammary gland cancer tumors. Kind of data set: DMBA-induced hormone-susceptible mammary gland cancer in female rats, daily oral treatment. It is filed as in vivo.
Another data set has as its system mammalian cancer cells. As to conditions: in vitro, cited from earlier work.
Data set [4] concerns hormone-susceptible malignant tumors in women. Kind of data set: Clinical use in volunteer patients. As to conditions: long-term (up to 2 months) administration in low doses.
Procedure: The duration of the course - 2 months.
The daily dose (with the patient's weight about 70 kg) consisted of 3 g DL-valine in combination with 25 mg (0.025 g or 5 tablets) methyltestosterone. The daile dose was divided into 3 single ones (1 g DL-valine in warm milk enterally and 1 tablet of methyltestosterone sublingually 3 times daily - on an empty stomach and before meals; and 1 tablet of methyltestosterone without DL-valine sublingually 2 times in the middle of the day before meals). The patient strictly observed the diet with the excess of protein, limited amount of carbohydrates and complete exclusion of animal fat and phospholipids (fish hard-roe, egg yolk), using no more than 1-2 table spoonfuls of vegetable oil daily.

For the compound `CCC(=O)O[C@H]1CC[C@H]2[C@@H]3CCC4=CC(=O)CC[C@]4(C)[C@H]3CC[C@]12C` [testosterone propionate], in data set [1], the “per cent of complete regression (disappearance of tumor)” value (shortened to “per cent of complete regression”) is reported as 10%, the “per cent of partial decrease of tumors” value is recorded as 30%, the “tumors which did not regress at all” value was 60% and the “per cent of general regression of all tumors” value (shortened to “per cent … of all tumors”) is on record as 40%.

As for `COc1cc(C=NNC(=O)c2ccncc2)ccc1O` [phthivazid], in data set [2] (with DL-valine and methandrostenolone, found empirically), the “optimal dose of phthivazid” value is 45-50 mg/kg body weight.

In the case of `C[C@]12C=CC(=O)C=C1CC[C@@H]1[C@@H]2CC[C@@]2(C)[C@H]1CC[C@]2(C)O` [methandrostenolone], the “optimal dose of methandrostenolone in mixture with DL-valine” value in data set [2] (long-term growing tumors 10 cm³ or larger) is 20-25 mg/kg body weight.

Regarding `CC(C)C(N)C(=O)O` (racemic) [DL-valine], the regression effect result in data set [3] (DL-valine 275 mg/kg in the mixture) is given as “disappears completely”. Further, the “optimal dose of DL-valine” value in data set [3] (in the mixture) turned out to be 550 mg/kg. The “damage of non-malignant cells” value in the data set with mammalian cancer cells is reported as “without any damage”. For the same compound, the “cytotoxic effect on mammalian cancer cells” value in the data set with mammalian cancer cells (compared with other DL-amino acids) is “the strongest cytotoxic effect”.

Consider `C[C@@H]1C[C@@]2(C)[C@@H](CC[C@@H]3[C@@H]2CC[C@]2(C)[C@@H](O)CC[C@@H]32)CC1=O` [2α -methyldihydrotestosterone], for which, in data set [1], the “per cent of complete regression” value is reported as 20%, the “per cent of partial decrease of tumors” value is reported as 60%, the “tumors which did not regress at all” value is reported as 20% and the “per cent … of all tumors” value is given as 80%.

Consider `C[C@]12CCC(=O)C=C1CC[C@@H]1[C@@H]2CC[C@@]2(C)[C@H]1CC[C@]2(C)O` [methyltestosterone], for which the minimal effective dose in data set [3] (Rattus norvegicus, po, without DL-valine, read-out: dose from which methyltestosterone alone causes regression) is not below 25 mg/kg. For the same compound, the “antiblastic effect alone, without DL-valine” value in data set [3] (nontherapeutic doses 5-10 mg/kg) is recorded as “cause no regression or even inhibition of the growth”. Moreover, the “better dose of methyltestosterone in combination with DL-valine” value in data set [3] (tumor sizes over 6.0 cm³ up to 8-10 cm³) was 10 mg/kilo body weight. For the same compound, the “dose of methyltestosterone giving the optimal antiblastic effect in combination with DL-valine” value in data set [3] (tumors of 4.0 cm³ to 6.0 cm³) was 5 mg per kilo body weight. The experimental therapeutic dose in data set [1] (administered orally) was 25-40 mg/kg per day. The side effects result in data set [4] was “weak manifestations of virilism”.

On to `CCC(=O)O[C@H]1CC[C@H]2[C@@H]3CC[C@H]4CC(=O)[C@H](C)C[C@]4(C)[C@H]3CC[C@]12C` [2α-methyldihydrotestosterone propionate], for which, in data set [1], the “per cent of complete regression” value was 50%, the “per cent of partial decrease of tumors” value is 20%, the “tumors which did not regress at all” value is 30% and the “per cent … of all tumors” value is listed as 70%.
